This is an account of results in patent publication US11179412B2, “Methods of treating conditions involving elevated inflammatory response” (University of Pittsburgh—Of the Commonwealth System of …, priority 2017, dated 2021).

In experiment [1] the test system is STING signaling (TBK1, IRF3, p65, ALK, EGFR, AKT phosphorylation) in RAW264.7 cells. Put plainly: Western blot of STING pathway protein phosphorylation, RAW264.7. The experiment is classed as cell-based, mouse. The following applies: 16 hours, 10 μM. Here is the method:
(§1) For immunoblotting, cells were lysed in Cell Lysis Buffer (#9803, Cell Signaling Technology) with protease inhibitor cocktail (Promega), phosphatase inhibitor cocktail (Sigma), and 1 mM Na3VO4 (70). Cleared lysates were resolved by SDS-PAGE (#3450124, Bio-Rad) and then transferred onto PVDF membranes (#1704273, Bio-Rad). The membranes were blocked with Tris-buffered saline Tween 20 (TBST) containing 5% skim milk for 1 h at room temperature and then incubated with the indicated primary antibodies (1:1000-1:5000) overnight at 4° C. After being washed with TBST, the membranes were incubated with an HRP-linked anti-mouse IgG secondary antibody (#7076, Cell Signaling Technology) or HRP-linked anti-rabbit IgG secondary antibody (#7074, Cell Signaling Technology) for 1 h at room temperature. The membranes were washed three times in TBST and then visualized and analyzed with a ChemiDoc Touch Imaging System (#1708370, Bio-Rad). The intensities of bands were analyzed with Image Lab software.
A general note: A western blot detects proteins with antibodies after separation by electrophoresis.

In experiment [2] the test system is STING signaling (TBK1, IRF3, p65, ALK, EGFR, AKT phosphorylation) in iBMDMs. Put plainly: Western blot of STING pathway protein phosphorylation, iBMDMs. Conditions: 16 hours, 10 μM. It is filed as cell-based, mouse. Here is the method: as §1
In experiment [3] the test system is STING activation (IFNβ release) in iBMDMs. The experiment in a line: IFNβ release ELISA after STING ligand (or LPS) stimulation, iBMDMs. The experiment is classed as cell-based, mouse. Conditions: iBMDMs; 3′3′-cGAMP 10 μg/ml, 16 hours; compound 10 μM. An outline of the steps:
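IFNβ released into the medium was quantified by ELISA (mouse or human kit) after iBMDM stimulation with the canonical STING agonist 3′3′-cGAMP or with LPS.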

The target of experiment [4] is T1, interaction between ALK and EGFR (Homo sapiens, UniProt P00533+Q9UM73).
T1 construct: endogenous in cells; host or cells: THP1 cells
The experiment in a line: IP analysis of the interaction between ALK and EGFR, THP1. The experiment is classed as cell-based. The following applies: 3′3′-cGAMP or c-di-AMP 10 μg/ml, 16 hours, 10 μM. Here is the method: For immunoprecipitation, cells were lysed at 4° C. in ice-cold modified radioimmunoprecipitation lysis buffer (#9806, Cell Signaling Technology) and cell lysates were cleared by centrifugation (12,000 g, 10 min). Concentrations of proteins in the supernatant were determined by bicinchoninic acid assay. Prior to immunoprecipitation, samples containing equal amounts of proteins were pre-cleared with Protein A/G agarose/sepharose beads (#20423, Thermo Fisher Scientific Inc.) (4° C., 3 h) and subsequently incubated with various irrelevant IgG or anti-ALK (#ab190934, Abcam) or anti-EGFR antibodies (#2232S, Cell Signaling Technology) in the presence of Protein A/G agarose/sepharose beads overnight at 4° C. with gentle shaking. Following incubation, agarose/sepharose beads were washed extensively with PBS and proteins were eluted by boiling in 2× sodium dodecyl sulfate (SDS) sample buffer before SDS-PAGE electrophoresis.

In experiment [5] the test system is STING signaling (TBK1, IRF3, p65, ALK, EGFR, AKT phosphorylation) in THP1 cells. Put plainly: Western blot of STING pathway protein phosphorylation, THP1. Conditions: 16 hours, 10 μM. The experiment is classed as cell-based, human. The protocol:
as §1

In experiment [6] the target is T2, interaction between ALK and EGFR (Mus musculus, UniProt P97793+Q01279).
T2 construct: endogenous in cells; host or cells: iBMDMs
Put plainly: IP analysis of the interaction between ALK and EGFR, iBMDMs. The experiment is classed as cell-based. The following applies: 3′3′-cGAMP or c-di-AMP 10 μg/ml, 16 hours, 10 μM. Here is the method: Concentrations of proteins in the supernatant were determined by bicinchoninic acid assay. […] Following incubation, agarose/sepharose beads were washed extensively with PBS and proteins were eluted by boiling in 2× sodium dodecyl sulfate (SDS) sample buffer before SDS-PAGE electrophoresis.

[7] abbreviates: 3′3′-cGAMP or c-di-AMP 10 μg/ml.

T2 sequence (P97793 19-1621): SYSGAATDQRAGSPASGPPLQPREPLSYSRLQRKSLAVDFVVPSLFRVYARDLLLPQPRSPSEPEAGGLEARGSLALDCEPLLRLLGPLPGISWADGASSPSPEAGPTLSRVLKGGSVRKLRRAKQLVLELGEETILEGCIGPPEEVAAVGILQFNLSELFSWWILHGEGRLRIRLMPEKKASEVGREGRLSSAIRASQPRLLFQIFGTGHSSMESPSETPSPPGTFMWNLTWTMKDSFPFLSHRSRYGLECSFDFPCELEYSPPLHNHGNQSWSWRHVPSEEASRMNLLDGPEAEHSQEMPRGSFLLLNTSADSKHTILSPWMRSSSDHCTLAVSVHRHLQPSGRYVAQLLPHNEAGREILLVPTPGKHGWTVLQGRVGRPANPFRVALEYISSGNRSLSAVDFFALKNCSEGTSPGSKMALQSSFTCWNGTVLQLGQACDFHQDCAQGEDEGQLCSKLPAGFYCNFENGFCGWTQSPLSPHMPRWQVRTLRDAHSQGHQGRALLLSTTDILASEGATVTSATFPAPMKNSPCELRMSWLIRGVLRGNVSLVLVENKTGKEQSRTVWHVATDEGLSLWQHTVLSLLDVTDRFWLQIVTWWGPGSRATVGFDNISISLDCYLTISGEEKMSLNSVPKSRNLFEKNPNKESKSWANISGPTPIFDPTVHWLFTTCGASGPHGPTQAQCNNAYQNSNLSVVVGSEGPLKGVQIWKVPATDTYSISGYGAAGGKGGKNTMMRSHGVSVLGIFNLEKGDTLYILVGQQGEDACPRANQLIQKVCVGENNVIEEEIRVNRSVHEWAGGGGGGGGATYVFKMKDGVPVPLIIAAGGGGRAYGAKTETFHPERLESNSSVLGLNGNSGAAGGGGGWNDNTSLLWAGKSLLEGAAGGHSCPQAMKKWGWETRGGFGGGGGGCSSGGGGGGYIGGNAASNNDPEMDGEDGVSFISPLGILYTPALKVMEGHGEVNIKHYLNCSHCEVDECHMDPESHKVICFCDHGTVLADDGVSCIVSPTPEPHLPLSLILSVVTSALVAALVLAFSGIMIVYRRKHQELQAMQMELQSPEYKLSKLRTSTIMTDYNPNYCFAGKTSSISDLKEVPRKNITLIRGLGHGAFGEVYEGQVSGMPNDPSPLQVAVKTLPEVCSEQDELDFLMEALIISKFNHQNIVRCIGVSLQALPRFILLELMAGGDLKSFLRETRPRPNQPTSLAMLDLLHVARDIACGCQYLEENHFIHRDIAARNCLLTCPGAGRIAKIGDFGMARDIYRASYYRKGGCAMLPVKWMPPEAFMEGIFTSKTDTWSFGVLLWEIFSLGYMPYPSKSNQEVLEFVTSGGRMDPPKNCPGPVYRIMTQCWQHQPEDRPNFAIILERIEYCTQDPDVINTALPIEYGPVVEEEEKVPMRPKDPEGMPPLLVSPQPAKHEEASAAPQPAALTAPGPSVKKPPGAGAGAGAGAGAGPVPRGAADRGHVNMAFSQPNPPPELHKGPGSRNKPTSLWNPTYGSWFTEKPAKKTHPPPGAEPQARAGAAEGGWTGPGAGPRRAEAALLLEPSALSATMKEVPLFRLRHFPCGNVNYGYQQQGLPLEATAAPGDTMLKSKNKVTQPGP
T2 sequence (Q01279 25-1210): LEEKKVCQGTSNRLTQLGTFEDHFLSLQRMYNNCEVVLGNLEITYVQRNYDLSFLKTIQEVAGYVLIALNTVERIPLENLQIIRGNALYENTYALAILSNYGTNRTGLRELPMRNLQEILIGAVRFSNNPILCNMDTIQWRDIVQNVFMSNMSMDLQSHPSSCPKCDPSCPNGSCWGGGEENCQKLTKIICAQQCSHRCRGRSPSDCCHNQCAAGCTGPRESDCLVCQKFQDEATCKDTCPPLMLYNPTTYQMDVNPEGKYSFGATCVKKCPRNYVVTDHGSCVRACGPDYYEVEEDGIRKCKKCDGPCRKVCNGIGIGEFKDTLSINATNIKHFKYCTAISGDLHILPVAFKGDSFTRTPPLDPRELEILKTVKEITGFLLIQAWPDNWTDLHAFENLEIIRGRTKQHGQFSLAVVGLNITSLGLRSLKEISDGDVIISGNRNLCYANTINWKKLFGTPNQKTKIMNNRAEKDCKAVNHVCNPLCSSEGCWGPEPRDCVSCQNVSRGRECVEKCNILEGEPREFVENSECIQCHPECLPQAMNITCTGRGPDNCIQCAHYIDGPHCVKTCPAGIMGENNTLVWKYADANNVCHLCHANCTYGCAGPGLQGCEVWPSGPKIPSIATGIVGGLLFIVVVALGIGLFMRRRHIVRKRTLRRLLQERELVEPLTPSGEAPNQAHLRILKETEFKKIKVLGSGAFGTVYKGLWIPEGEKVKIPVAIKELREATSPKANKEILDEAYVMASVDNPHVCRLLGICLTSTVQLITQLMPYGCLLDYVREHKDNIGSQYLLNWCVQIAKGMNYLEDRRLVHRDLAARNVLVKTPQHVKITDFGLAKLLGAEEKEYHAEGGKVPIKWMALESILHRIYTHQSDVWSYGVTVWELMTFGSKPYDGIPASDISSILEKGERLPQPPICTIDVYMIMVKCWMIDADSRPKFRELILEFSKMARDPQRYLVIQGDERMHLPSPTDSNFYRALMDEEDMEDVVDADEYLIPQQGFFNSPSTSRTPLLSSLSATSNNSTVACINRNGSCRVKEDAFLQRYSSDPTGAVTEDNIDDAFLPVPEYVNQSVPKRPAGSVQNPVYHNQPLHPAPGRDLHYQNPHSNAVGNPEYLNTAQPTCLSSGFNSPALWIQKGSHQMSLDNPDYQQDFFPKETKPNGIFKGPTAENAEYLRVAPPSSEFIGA

On to `C#Cc1cccc(Nc2ncnc3cc(OCCOC)c(OCCO)cc23)c1` [OSI-420], for which the “STING ligand-induced phosphorylation of TBK1, IRF3, and p65” value in experiment [1] (setting [7]), in experiment [2] (setting [7]) and in experiment [5] (setting [7]) was “diminished” throughout. The “3′3′-cGAMP- or c-di-AMP-induced phosphorylation of ALK, EGFR, and AKT” value in experiment [1] (ligand 10 μg/ml), in experiment [2] (ligand 10 μg/ml) and in experiment [5] (ligand 10 μg/ml) was “attenuated” in each case. Besides, the “fold increase in IFN-β release” value in experiment [3] is on record as 0.14 fold. In addition, the “interaction between ALK and EGFR” value in experiment [4] and in experiment [6] was “reduced” in each case.
